Test results reported in ChEMBL document CHEMBL1909046, “DrugMatrix in vitro pharmacology data”.

What follows are compounds tested against T1, Calcitonin receptor (Homo sapiens, UniProt P30988) (assay: not given). Conditions: t47d.
T1 sequence (P30988 whole entry): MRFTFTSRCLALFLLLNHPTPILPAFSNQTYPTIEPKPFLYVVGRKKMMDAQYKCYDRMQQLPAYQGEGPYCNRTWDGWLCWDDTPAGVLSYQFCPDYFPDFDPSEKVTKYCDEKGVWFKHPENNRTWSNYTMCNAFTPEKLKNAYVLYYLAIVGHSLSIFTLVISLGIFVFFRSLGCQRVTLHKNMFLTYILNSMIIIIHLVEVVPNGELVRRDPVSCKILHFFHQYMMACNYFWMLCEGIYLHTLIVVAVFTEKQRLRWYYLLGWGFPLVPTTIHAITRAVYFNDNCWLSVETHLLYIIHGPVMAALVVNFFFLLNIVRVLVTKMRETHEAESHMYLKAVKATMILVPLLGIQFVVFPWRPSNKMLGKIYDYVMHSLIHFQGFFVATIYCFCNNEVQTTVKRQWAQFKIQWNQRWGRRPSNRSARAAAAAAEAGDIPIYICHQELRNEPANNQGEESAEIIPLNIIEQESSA
Type: cell membranes, Membrane

Row | SMILES | IC50 | Ki
1 | S=C=Nc1cccc2ccccc12 [1-NAPHTHYLISOTHIOCYANATE] | Not Active | 
2 | CCCC(=O)Nc1ccc(OCC(O)CNC(C)C)c(C(C)=O)c1 (centres undefined) [ACEBUTOLOL] | Not Active | 
3 | CC(=O)Nc1ccc(O)cc1 [ACETAMINOPHEN] | Not Active | 
4 | COc1cc2c(c3oc(=O)c4c(c13)CCC4=O)[C@@H]1C=CO[C@@H]1O2 [AFLATOXIN] | Not Active | Not Active
5 | N=C(N)NC(=O)c1nc(Cl)c(N)nc1N [AMILORIDE] | Not Active | 
6 | Cc1cc(=O)n(-c2ccccc2)n1C [ANTIPYRINE] | Not Active | 
7 | CN1C(=O)COc2c(C(=O)NC3CN4CCC3CC4)cc(Cl)cc21 (centres undefined) [AZASETRON] | Not Active | 
8 | C[C@H]1C[C@H]2[C@@H]3CCC4=CC(=O)C=C[C@]4(C)[C@@]3(Cl)[C@@H](O)C[C@]2(C)[C@@]1(O)C(=O)CO [BECLOMETHASONE] | Not Active | 
9 | CCOC(=O)[C@H](CCc1ccccc1)N[C@H]1CCc2ccccc2N(CC(=O)O)C1=O [BENAZEPRIL] | Not Active | 

The compounds below were run against Cytochrome P450 2C19 (Homo sapiens, UniProt P33261) (assay: not given). Conditions: bti-tn-5b1-4.
Sequence of Cytochrome P450 2C19 (P33261 whole entry): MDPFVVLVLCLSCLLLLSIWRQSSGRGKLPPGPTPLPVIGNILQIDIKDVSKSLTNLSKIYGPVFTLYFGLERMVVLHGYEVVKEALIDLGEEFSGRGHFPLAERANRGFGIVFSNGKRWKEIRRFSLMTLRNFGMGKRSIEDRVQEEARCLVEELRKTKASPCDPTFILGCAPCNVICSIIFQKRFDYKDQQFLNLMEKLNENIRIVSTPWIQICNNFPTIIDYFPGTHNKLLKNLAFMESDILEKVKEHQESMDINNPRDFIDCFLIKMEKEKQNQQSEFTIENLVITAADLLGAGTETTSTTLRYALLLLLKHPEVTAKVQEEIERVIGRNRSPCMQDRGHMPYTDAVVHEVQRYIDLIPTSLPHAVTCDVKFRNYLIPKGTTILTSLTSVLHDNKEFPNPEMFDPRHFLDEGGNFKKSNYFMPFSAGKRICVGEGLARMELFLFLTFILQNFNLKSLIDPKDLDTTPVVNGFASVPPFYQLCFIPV

Row | SMILES | IC50 | Ki
10 | S=C=Nc1cccc2ccccc12 [1-NAPHTHYLISOTHIOCYANATE] | Not Active | Not Active
11 | CCCC(=O)Nc1ccc(OCC(O)CNC(C)C)c(C(C)=O)c1 (centres undefined) [ACEBUTOLOL] | Not Active | Not Active
12 | CC(=O)Nc1ccc(O)cc1 [ACETAMINOPHEN] | Not Active | Not Active
13 | COc1cc2c(c3oc(=O)c4c(c13)CCC4=O)[C@@H]1C=CO[C@@H]1O2 [AFLATOXIN] | Not Active | Not Active
14 | N=C(N)NC(=O)c1nc(Cl)c(N)nc1N [AMILORIDE] | Not Active | Not Active
15 | Cc1cc(=O)n(-c2ccccc2)n1C [ANTIPYRINE] | Not Active | Not Active
16 | CN1C(=O)COc2c(C(=O)NC3CN4CCC3CC4)cc(Cl)cc21 (centres undefined) [AZASETRON] | Not Active | Not Active
17 | C[C@H]1C[C@H]2[C@@H]3CCC4=CC(=O)C=C[C@]4(C)[C@@]3(Cl)[C@@H](O)C[C@]2(C)[C@@]1(O)C(=O)CO [BECLOMETHASONE] | Not Active | Not Active
18 | CCOC(=O)[C@H](CCc1ccccc1)N[C@H]1CCc2ccccc2N(CC(=O)O)C1=O [BENAZEPRIL] | Not Active | Not Active

These compounds were tested against T2, 5-hydroxytryptamine receptor 2C (Homo sapiens, UniProt P28335) (assay: DRUGMATRIX: Serotonin (5-Hydroxytryptamine) 5-HT2C radioligand binding (ligand: [3H] Mesulergine)). Conditions: cho-k1; Not Active = under 50% inhibition at 10 µM.
T2 sequence (P28335 whole entry): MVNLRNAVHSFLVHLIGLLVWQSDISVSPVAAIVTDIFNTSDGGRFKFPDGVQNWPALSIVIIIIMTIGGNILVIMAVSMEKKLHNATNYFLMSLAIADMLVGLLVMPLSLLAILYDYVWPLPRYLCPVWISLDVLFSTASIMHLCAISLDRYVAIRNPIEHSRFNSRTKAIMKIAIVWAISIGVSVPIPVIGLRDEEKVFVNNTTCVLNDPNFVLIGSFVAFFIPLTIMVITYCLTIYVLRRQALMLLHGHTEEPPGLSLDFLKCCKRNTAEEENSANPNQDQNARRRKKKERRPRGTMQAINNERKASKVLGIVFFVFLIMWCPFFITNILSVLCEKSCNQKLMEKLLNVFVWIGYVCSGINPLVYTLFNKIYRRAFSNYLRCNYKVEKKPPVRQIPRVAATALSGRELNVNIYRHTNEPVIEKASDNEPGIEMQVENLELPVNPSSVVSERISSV
Type: cell membranes, CHO-K1, Membrane

Row | SMILES | IC50 | Ki
19 | S=C=Nc1cccc2ccccc12 [1-NAPHTHYLISOTHIOCYANATE] | Not Active | 
20 | CCCC(=O)Nc1ccc(OCC(O)CNC(C)C)c(C(C)=O)c1 (centres undefined) [ACEBUTOLOL] | Not Active | 
21 | CC(=O)Nc1ccc(O)cc1 [ACETAMINOPHEN] | Not Active | 
22 | COc1cc2c(c3oc(=O)c4c(c13)CCC4=O)[C@@H]1C=CO[C@@H]1O2 [AFLATOXIN] | Not Active | Not Active
23 | N=C(N)NC(=O)c1nc(Cl)c(N)nc1N [AMILORIDE] | Not Active | 
24 | Cc1cc(=O)n(-c2ccccc2)n1C [ANTIPYRINE] | Not Active | 
25 | CN1C(=O)COc2c(C(=O)NC3CN4CCC3CC4)cc(Cl)cc21 (centres undefined) [AZASETRON] | Not Active | 
26 | C[C@H]1C[C@H]2[C@@H]3CCC4=CC(=O)C=C[C@]4(C)[C@@]3(Cl)[C@@H](O)C[C@]2(C)[C@@]1(O)C(=O)CO [BECLOMETHASONE] | Not Active | 
27 | CCOC(=O)[C@H](CCc1ccccc1)N[C@H]1CCc2ccccc2N(CC(=O)O)C1=O [BENAZEPRIL] | Not Active | 

What follows are compounds tested against T3, Polyunsaturated fatty acid lipoxygenase ALOX15 (Oryctolagus cuniculus, UniProt P12530) (assay: biochemical). Conditions: read-out: IC50.
T3 sequence (P12530 whole entry): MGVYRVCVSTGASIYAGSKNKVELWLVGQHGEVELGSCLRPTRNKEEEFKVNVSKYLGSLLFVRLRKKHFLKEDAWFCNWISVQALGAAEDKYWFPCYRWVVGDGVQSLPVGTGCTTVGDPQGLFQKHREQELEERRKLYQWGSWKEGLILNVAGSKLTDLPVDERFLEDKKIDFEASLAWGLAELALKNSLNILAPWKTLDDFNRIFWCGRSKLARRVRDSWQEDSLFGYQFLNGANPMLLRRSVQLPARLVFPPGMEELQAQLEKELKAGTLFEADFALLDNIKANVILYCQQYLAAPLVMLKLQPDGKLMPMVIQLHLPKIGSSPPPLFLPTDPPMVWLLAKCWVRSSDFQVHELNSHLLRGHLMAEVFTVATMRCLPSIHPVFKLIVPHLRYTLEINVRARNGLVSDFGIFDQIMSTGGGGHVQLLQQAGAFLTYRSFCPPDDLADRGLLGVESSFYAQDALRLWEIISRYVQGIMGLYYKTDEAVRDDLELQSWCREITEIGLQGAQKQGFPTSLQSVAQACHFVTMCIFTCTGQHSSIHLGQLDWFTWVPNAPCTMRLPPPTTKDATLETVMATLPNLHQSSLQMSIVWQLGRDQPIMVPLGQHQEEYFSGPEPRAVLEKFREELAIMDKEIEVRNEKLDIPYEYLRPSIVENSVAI
Type: tissue-based, Reticulocytes

Row | SMILES | IC50 [µM]
28 | CC(=O)Nc1ccc(O)cc1 [ACETAMINOPHEN] | 28.4

Same assay, conditions: reticulocytes

Row | SMILES | IC50 | Ki
29 | S=C=Nc1cccc2ccccc12 [1-NAPHTHYLISOTHIOCYANATE] | Not Active | 
30 | CCCC(=O)Nc1ccc(OCC(O)CNC(C)C)c(C(C)=O)c1 (centres undefined) [ACEBUTOLOL] | Not Active | 
31 | COc1cc2c(c3oc(=O)c4c(c13)CCC4=O)[C@@H]1C=CO[C@@H]1O2 [AFLATOXIN] | Not Active | Not Active
32 | N=C(N)NC(=O)c1nc(Cl)c(N)nc1N [AMILORIDE] | Not Active | 
33 | Cc1cc(=O)n(-c2ccccc2)n1C [ANTIPYRINE] | Not Active | 
34 | CN1C(=O)COc2c(C(=O)NC3CN4CCC3CC4)cc(Cl)cc21 (centres undefined) [AZASETRON] | Not Active | 
35 | C[C@H]1C[C@H]2[C@@H]3CCC4=CC(=O)C=C[C@]4(C)[C@@]3(Cl)[C@@H](O)C[C@]2(C)[C@@]1(O)C(=O)CO [BECLOMETHASONE] | Not Active | 
36 | CCOC(=O)[C@H](CCc1ccccc1)N[C@H]1CCc2ccccc2N(CC(=O)O)C1=O [BENAZEPRIL] | Not Active | 

Each compound was assayed against Mitogen-activated protein kinase 1 (Homo sapiens, UniProt P28482) (assay: DRUGMATRIX: Protein Serine/Threonine Kinase, ERK2 enzyme inhibition (substrate: Myelin Basic Protein)). Conditions: Not Active = under 50% inhibition at 10 µM.
Sequence of Mitogen-activated protein kinase 1 (P28482 whole entry): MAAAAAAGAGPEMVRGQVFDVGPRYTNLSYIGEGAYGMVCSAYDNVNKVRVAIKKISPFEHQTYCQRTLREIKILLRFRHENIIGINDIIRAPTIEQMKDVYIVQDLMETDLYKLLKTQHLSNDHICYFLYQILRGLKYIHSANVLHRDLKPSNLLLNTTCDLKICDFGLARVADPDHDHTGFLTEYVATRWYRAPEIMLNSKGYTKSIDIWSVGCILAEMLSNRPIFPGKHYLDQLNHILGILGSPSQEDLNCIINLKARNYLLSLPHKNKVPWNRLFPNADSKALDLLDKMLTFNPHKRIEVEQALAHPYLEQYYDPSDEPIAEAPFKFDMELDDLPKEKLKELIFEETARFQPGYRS
Design: species or system Escherichia coli

Row | SMILES | IC50 | Ki
37 | S=C=Nc1cccc2ccccc12 [1-NAPHTHYLISOTHIOCYANATE] | Not Active | 
38 | CCCC(=O)Nc1ccc(OCC(O)CNC(C)C)c(C(C)=O)c1 (centres undefined) [ACEBUTOLOL] | Not Active | 
39 | CC(=O)Nc1ccc(O)cc1 [ACETAMINOPHEN] | Not Active | 
40 | COc1cc2c(c3oc(=O)c4c(c13)CCC4=O)[C@@H]1C=CO[C@@H]1O2 [AFLATOXIN] | Not Active | Not Active
41 | N=C(N)NC(=O)c1nc(Cl)c(N)nc1N [AMILORIDE] | Not Active | 
42 | Cc1cc(=O)n(-c2ccccc2)n1C [ANTIPYRINE] | Not Active | 
43 | CN1C(=O)COc2c(C(=O)NC3CN4CCC3CC4)cc(Cl)cc21 (centres undefined) [AZASETRON] | Not Active | 
44 | C[C@H]1C[C@H]2[C@@H]3CCC4=CC(=O)C=C[C@]4(C)[C@@]3(Cl)[C@@H](O)C[C@]2(C)[C@@]1(O)C(=O)CO [BECLOMETHASONE] | Not Active | 
45 | CCOC(=O)[C@H](CCc1ccccc1)N[C@H]1CCc2ccccc2N(CC(=O)O)C1=O [BENAZEPRIL] | Not Active | 

Each compound was assayed against T4, Alpha-2A adrenergic receptor (Homo sapiens, UniProt P08913) (assay: not given). Conditions: read-out: IC50.
T4 sequence (P08913 whole entry): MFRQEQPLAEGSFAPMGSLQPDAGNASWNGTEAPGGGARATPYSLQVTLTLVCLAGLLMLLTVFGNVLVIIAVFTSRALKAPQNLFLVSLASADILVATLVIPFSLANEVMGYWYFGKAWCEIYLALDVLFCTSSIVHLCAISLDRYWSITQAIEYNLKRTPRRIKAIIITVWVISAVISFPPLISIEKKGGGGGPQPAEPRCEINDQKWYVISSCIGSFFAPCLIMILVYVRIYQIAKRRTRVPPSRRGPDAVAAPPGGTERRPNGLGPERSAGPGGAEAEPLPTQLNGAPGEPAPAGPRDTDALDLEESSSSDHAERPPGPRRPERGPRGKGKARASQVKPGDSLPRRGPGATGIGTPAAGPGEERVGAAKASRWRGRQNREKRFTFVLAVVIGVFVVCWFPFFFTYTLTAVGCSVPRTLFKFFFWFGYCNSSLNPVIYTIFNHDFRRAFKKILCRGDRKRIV
Type: cell membranes, Sf9, Membrane

Row | SMILES | IC50 [µM]
46 | S=C=Nc1cccc2ccccc12 [1-NAPHTHYLISOTHIOCYANATE] | 6.27

Same assay, conditions: read-out: Ki

Row | SMILES | Ki [µM]
47 | S=C=Nc1cccc2ccccc12 [1-NAPHTHYLISOTHIOCYANATE] | 2.35

Same assay, conditions: sf9

Row | SMILES | IC50 | Ki
48 | CCCC(=O)Nc1ccc(OCC(O)CNC(C)C)c(C(C)=O)c1 (centres undefined) [ACEBUTOLOL] | Not Active | 
49 | CC(=O)Nc1ccc(O)cc1 [ACETAMINOPHEN] | Not Active | 
50 | COc1cc2c(c3oc(=O)c4c(c13)CCC4=O)[C@@H]1C=CO[C@@H]1O2 [AFLATOXIN] | Not Active | Not Active
51 | N=C(N)NC(=O)c1nc(Cl)c(N)nc1N [AMILORIDE] | Not Active | 
52 | Cc1cc(=O)n(-c2ccccc2)n1C [ANTIPYRINE] | Not Active | 
53 | CN1C(=O)COc2c(C(=O)NC3CN4CCC3CC4)cc(Cl)cc21 (centres undefined) [AZASETRON] | Not Active | 
54 | C[C@H]1C[C@H]2[C@@H]3CCC4=CC(=O)C=C[C@]4(C)[C@@]3(Cl)[C@@H](O)C[C@]2(C)[C@@]1(O)C(=O)CO [BECLOMETHASONE] | Not Active | 
55 | CCOC(=O)[C@H](CCc1ccccc1)N[C@H]1CCc2ccccc2N(CC(=O)O)C1=O [BENAZEPRIL] | Not Active | 
